Measured values published in patent US5710130A, “Antithrombotic agents” (Eli Lilly and Company, priority 1995, dated 1998).
Where a name gives a salt, the structure may show the parent alone.

How the values were obtained:
Type in all cases: biochemical
human plasma [1] = assay: Human plasma anticoagulation, activated partial thromboplastin time (APTT); settings: concentration required to double APTT, linear extrapolation
Method: (§1) Dog plasma and rat plasma is obtained from conscious mixed-breed hounds (either sex, Hazelton-LRE, Kalamazoo, Mich., U.S.A.) or from anesthetized male Sprague-Dawley rats (Harlan Sprague-Dawley, Inc., Indianapolis, Ind., U.S.A.) by venipuncture into 3.8 percent citrate. Fibrinogen is prepared from in-date ACD human blood as the fraction I-2 according to previous procedures and specifications. […] Human fibrinogen is also purchased as 98 percent pure/plasmin free from American Diagnostica, Greenwich, Conn. Coagulation reagents ACTIN, Thromboplastin, and Human plasma are from Baxter Healthcare Corp., Dade Division, Miami, Fla. Bovine thrombin from Parke-Davis ([…], Mich.) is used for coagulation assays in plasma.
(§2) Coagulation assay procedures are as previously described. […] A CoAScreener coagulation instrument (American LABor, Inc.) is used for all coagulation assay measurements. The prothrombin time (PT) is measured by adding 0.05 mL saline and 0.05 mL Thromboplastin-C reagent to 0.05 mL test plasma. The activated partial thromboplastin time (APTT) is measured by incubation of 0.05 mL test plasma with 0.05 mL Actin reagent for 120 seconds followed by 0.05 mL CaCl2 (0.02M). The thrombin time (TT) is measured by adding 0.05 mL saline and 0.05 mL thrombin (10 NIH units/mL) to 0.05 mL test plasma. The compounds of Formula I are added to human or animal plasma over a wide range of concentrations to determine prolongation effects on the APTT, PT, and TT assays. Linear extrapolations are performed to estimate the concentrations required to double the clotting time for each assay.

human plasma [2] = assay: Human plasma anticoagulation, thrombin time (TT); settings: concentration required to double thrombin time, linear extrapolation
Method: as §1, §2

human plasma [3] = assay: Human plasma anticoagulation, prothrombin time (PT); settings: concentration required to double PT, linear extrapolation
Method: as §1, §2

Row | Molecule | Human Plasma Anticoagulation 2x Clotting time APTT (human plasma [1]) | Human Plasma Anticoagulation 2x Clotting time TT (human plasma [2]) | Human Plasma Anticoagulation 2x Clotting time PT (human plasma [3])
1 | N=C(N)c1ccc(CNC(=O)[C@@H]2C[C@@H]3CCCC[C@@H]3N2C(=O)[C@H]2C[C@H]3CCCC[C@H]3CN2)cc1 (relative stereo) [Example 43, D-3-Piq-cis-Ohi-p-NHCH2 C6 H4 C(NH)NH2.2HCl] | 1,100 ng/mL | 280 ng/mL | 930 ng/mL
2 | Nc1ccc(CNC(=O)[C@@H]2CCCN2C(=O)[C@@H](CC2CCCCC2)NCC(=O)O)cc1 [Example 62, HO2 CCH2 -D-Cha-Pro-4-NHCH2 C6 H4 NH2.HCl] | – | 54 ng/mL | –
3 | N=C(N)Nc1ccc(CCNC(=O)[C@@H]2CCCN2C(=O)[C@@H]2NCC[C@@H]3CCCC[C@@H]32)cc1 [Example 39, D-1-piq-Pro-p-NHCH2 CH2 C6 H4 NHC(NH)NH2.2HCl] | – | 5,300 ng/mL | –
4 | CCS(=O)(=O)N[C@H](Cc1ccccc1)C(=O)N1CCC[C@H]1C(=O)NCCCc1cccc(C(=N)N)c1 [Example 31, EtSO2 -D-Phe-Pro-m-NHCH2 CH2 CH2 -C6 H4 C(=NH)NH2.HCl] | – | – | 30,000 ng/mL
5 | (S-cis)-N-[[4-(amino iminomethyl)phenyl]methyl]-1-[N-(ethylsulfonyl)-D-phenylglycyl]-1H-indole- 2-carboxamide hydrochloride [Example 44] | 100 ng/mL | 4 ng/mL | 170 ng/mL
6 | CCC(CC)C(=O)N[C@@H](CCC(=O)O)C(=O)N1CCC[C@H]1C(=O)NCc1ccc(C(=N)N)cc1 [Example 90, (C2 H5)2 CHCO-Glu-Pro-p-NHCH2 C6 H4 C(NH)NH2.HCl] | – | 330 ng/mL | –
7 | N=C(N)c1ccc(CNC(=O)[C@@H]2CCCN2C(=O)[C@@H](CC2CCCCC2)NCCC(=O)O)cc1 [Example 52, N-(2-carboxyethyl)-D-cyclohexylalanyl-N-[[4-(aminoiminomethyl)phenyl]methyl]-L-prolinamide hydrochloride] | 80 ng/mL | 6 ng/mL | 170 ng/mL
8 | CCS(=O)(=O)N[C@H](Cc1ccccc1)C(=O)N1CCC[C@H]1C(=O)NCc1cccc(C(=N)N)c1 [Example 24, EtSO2 -D-Phe-Pro-m-NHCH2 -C6 H4 C(=NH)NH2.HCl] | – | 1,000 ng/mL | 25,000 ng/mL
9 | O=C(O)CN[C@H](CC1CCCCC1)C(=O)N1CCC[C@H]1C(=O)NCCCC1CCNCC1 [Example 55, HO2 CCH2 -D-Cha-Pro-4-NHCH2 CH2 CH2 -piperidine.HCl] | > 91,000 ng/mL | – | > 91,000 ng/mL
10 | Nc1ccc(CNC(=O)[C@@H]2CCCN2C(=O)[C@H](N)Cc2ccccc2)cc1 [Example 13, D-Phe-Pro-p-NHCH2 C6 H4 NH2.HCl] | – | 660 ng/mL | –
11 | O=C(O)CN[C@H](CC1CCCCC1)C(=O)N1CCC[C@H]1C(=O)NCC1CCNCC1 [Example 53, HO2 CCH2 -D-Cha-Pro-4-NHCH2 -piperidine.HCl] | – | 1,400 ng/mL | –
12 | NCc1ccc(CNC(=O)[C@@H]2CCCN2C(=O)[C@H](N)Cc2ccccc2)cc1 [Example 10, D-Phe-Pro-p-NHCH2 C6 H4 CH2 NH2.HCl] | – | 420 ng/mL | –
13 | N=C(N)c1ccc(CNC(=O)[C@@H]2CCCN2C(=O)[C@@H](CC2CCCCC2)NCC(=O)O)s1 [Example 65, N-(carboxymethyl)-D-cyclohexylalanyl-N-[[5-(aminoiminomethyl)thiophen-2-yl]methyl]-L-prolinamide hydrochloride] | 48 ng/mL | 1 ng/mL | –
14 | N=C(N)Nc1cccc(CNC(=O)[C@@H]2CCCN2C(=O)[C@@H]2NCC[C@@H]3CCCC[C@@H]32)c1 [Example 40, D-1-Piq-Pro-m-NHCH2 C6 H4 NHC(NH)NH2.2HCl] | > 91,000 ng/mL | – | > 91,000 ng/mL
15 | N=C(N)Nc1ccc(CNC(=O)[C@@H]2CCCN2C(=O)[C@@H]2NCC[C@@H]3CCCC[C@@H]32)cc1 [Example 38, D-1-piq-pro-p-NHCH2 C6 H4 NHC(NH)NH2.2HCl] | 6,100 ng/mL | 540 ng/mL | –
16 | N=C(N)NCc1ccc(CNC(=O)[C@@H]2CCCN2C(=O)[C@H](N)Cc2ccccc2)cc1 [Example 9, D-Phe-Pro-p-NHCH2 C6 H4 CH2 NHC(NH)NH2.2TFA] | – | > 91,000 ng/mL | –
17 | N=C(N)NCCCCNC(=O)[C@@H]1CCCN1C(=O)[C@@H]1NCC[C@H]2CCCC[C@H]21 [Example 61, N-[4-[(aminoiminomethyl)amino]butyl]-1-[[(4aR,8aR)-decahydro-1(R)-isoquinolinyl]carbonyl]-1-prolinamide trihydrochloride] | – | 45 ng/mL | –
18 | N=C(N)c1ccc(CNC(=O)[C@@H]2CCCN2C(=O)[C@@H](CC2CCCCC2)NCCCC(=O)O)cc1 [Example 85, N-(3-carboxypropyl)-D-cyclohexylalanyl-N-[[4-(aminoiminomethyl)phenyl]methyl]-L-prolinamide hydrochloride] | 100 ng/mL | 4.9 ng/mL | –
19 | N=C(N)Nc1cccc(CCNC(=O)[C@@H]2CCCN2C(=O)[C@@H]2NCC[C@@H]3CCCC[C@@H]32)c1 [Example 41, D-1-Piq-Pro-m-NHCH2 CH2 C6 H4 NHC(NH)NH2.2HCl] | > 91,000 ng/mL | – | > 91,000 ng/mL
20 | N=C(N)NCCCCCNC(=O)[C@@H]1CCCN1C(=O)[C@H](N)Cc1ccccc1 [Example 6, D-Phe-Pro-NH(CH2)5 NHC(NH)NH2.HCl] | – | 390 ng/mL | –
21 | CCS(=O)(=O)N[C@H](Cc1ccccc1)C(=O)N1CCC[C@H]1C(=O)NCCCCN=C(N)N.Cl [Example 1, EtSO2 -D-Phe-Pro-Agm.Hcl] | – | 250 ng/mL | –
22 | N=C(N)c1ccc(CNC(=O)[C@@H]2C[C@@H]3CCCC[C@@H]3N2C(=O)[C@H]2CCCCN2)cc1 (relative stereo) [Example 20, (S-cis)-N-[[4-(aminoiminomethyl)phenyl]methyl]-octahydro-1-D-homoprolyl-1H-indole-2-carboxamide trihydrochloride] | – | – | 600 ng/mL
23 | Nc1ccc(CCNC(=O)[C@@H]2CCCN2C(=O)[C@@H](CC2CCCCC2)NCC(=O)O)cc1 [Example 63, HO2 CCH2 -D-Cha-Pro-4-NHCH2 CH2 C6 H4 NH2.HCl] | – | 680 ng/mL | –
24 | CCS(=O)(=O)N[C@H](Cc1ccccc1)C(=O)N1CCC[C@H]1C(=O)NCCCc1ccc(C(=N)N)cc1 [Example 30, EtSO2 -D-Phe-Pro-p-NHCH2 CH2 CH2 -C6 H4 C(=NH)NH2.HCl] | 14,000 ng/mL | 1,000 ng/mL | –
25 | N=C(N)NCCCNC(=O)[C@@H]1CCCN1C(=O)[C@H](N)Cc1ccccc1 [Example 7, D-Phe-Pro-NH(CH2)3 NHC(NH)NH2.HCl] | – | 490 ng/mL | –
26 | N=C(N)NCCCCCCNC(=O)[C@@H]1CCCN1C(=O)[C@H](N)Cc1ccccc1 [Example 5, D-Phe-Pro-NH(CH2)6 NHC(NH)NH2.HCl] | – | 30,000 ng/mL | –
